{"source": "patent US20240156800A1", "about": "“EP300 DEGRADER AND USES THEREOF IN NEUROBLASTOMA” (DANA-FARBER CANCER INSTITUTE, INC., priority 2021, published 2024)", "key": {"[1]": {"assay": "Pharmacokinetic analysis after a single intraperitoneal dose in CD1 mice", "type": "in vivo, mouse", "conditions": "10 mg/Kg single IP dose, murine serum", "method": "(§1) For toxicity studies, four female CD1 mice (Charles River Laboratories) were injected intraperitoneally (IP) with single doses of 10 mg/Kg (R,S)-JQAD1 solubilized in 10% hydroxypropyl β-cyclodextrin (Sigma-Aldrich®) in sterile water. Following injection, blood concentration of (R,S)-JQAD1 was measured by serial measurements of animal serum at time points out to 24 h, by liquid chromatography with tandem mass spectrometry (LC-MS/MS) analysis. Pharmacokinetics were performed at ChemPartner in Shanghai, China, using LC-MS/MS method and pharmacokinetics parameters (Tmax, Cmax, T1/2, AUC, etc.) calculated with WinNonlin® V 6.2 statistics software (Pharsight Corporation) using a noncompartmental model. For maximally tolerated dose (MTD) testing, six female CD1 mice were treated with daily IP doses of (R,S)-JQAD1 at 10, 20, or 40 mg/kg. Animals were monitored for animal weight, grooming and behavior daily without noted effects. For MTD testing in humanized CRBN knockin (Balb/c CRBN^ILE391VAL) (Jackson Laboratories), 6 mice per treatment group were treated with either vehicle control or (R,S)-JQAD1 at 40 mg/kg/day by IP injection. Animal weights, behavior and grooming were monitored daily, for a total of 21 days. At day 14, three mice per treatment group were sacrificed and tissues fixed for immunohistochemistry. Blood samples were obtained by retro-orbital puncture and blood analyzed at the Small Animal Imaging Facility at Beth Israel Deaconess Medical Center (Boston, MA), on a Hemavet® 9500FS (Drew Scientific) for blood counts, creatinine, AST, ALT, ALP, GGTP, and BUN measurements."}, "EP300 [2]": {"target": "T1, EP300 (Homo sapiens, UniProt Q09472)", "T1 construct": "Cells growing in culture were lysed for whole cell lysates; endogenous in cells; host or cells: Kelly, NGP, SIMA, BE2C neuroblastoma cells; Kelly xenografts in NSG mice", "T1 sequence (Q09472 whole entry)": "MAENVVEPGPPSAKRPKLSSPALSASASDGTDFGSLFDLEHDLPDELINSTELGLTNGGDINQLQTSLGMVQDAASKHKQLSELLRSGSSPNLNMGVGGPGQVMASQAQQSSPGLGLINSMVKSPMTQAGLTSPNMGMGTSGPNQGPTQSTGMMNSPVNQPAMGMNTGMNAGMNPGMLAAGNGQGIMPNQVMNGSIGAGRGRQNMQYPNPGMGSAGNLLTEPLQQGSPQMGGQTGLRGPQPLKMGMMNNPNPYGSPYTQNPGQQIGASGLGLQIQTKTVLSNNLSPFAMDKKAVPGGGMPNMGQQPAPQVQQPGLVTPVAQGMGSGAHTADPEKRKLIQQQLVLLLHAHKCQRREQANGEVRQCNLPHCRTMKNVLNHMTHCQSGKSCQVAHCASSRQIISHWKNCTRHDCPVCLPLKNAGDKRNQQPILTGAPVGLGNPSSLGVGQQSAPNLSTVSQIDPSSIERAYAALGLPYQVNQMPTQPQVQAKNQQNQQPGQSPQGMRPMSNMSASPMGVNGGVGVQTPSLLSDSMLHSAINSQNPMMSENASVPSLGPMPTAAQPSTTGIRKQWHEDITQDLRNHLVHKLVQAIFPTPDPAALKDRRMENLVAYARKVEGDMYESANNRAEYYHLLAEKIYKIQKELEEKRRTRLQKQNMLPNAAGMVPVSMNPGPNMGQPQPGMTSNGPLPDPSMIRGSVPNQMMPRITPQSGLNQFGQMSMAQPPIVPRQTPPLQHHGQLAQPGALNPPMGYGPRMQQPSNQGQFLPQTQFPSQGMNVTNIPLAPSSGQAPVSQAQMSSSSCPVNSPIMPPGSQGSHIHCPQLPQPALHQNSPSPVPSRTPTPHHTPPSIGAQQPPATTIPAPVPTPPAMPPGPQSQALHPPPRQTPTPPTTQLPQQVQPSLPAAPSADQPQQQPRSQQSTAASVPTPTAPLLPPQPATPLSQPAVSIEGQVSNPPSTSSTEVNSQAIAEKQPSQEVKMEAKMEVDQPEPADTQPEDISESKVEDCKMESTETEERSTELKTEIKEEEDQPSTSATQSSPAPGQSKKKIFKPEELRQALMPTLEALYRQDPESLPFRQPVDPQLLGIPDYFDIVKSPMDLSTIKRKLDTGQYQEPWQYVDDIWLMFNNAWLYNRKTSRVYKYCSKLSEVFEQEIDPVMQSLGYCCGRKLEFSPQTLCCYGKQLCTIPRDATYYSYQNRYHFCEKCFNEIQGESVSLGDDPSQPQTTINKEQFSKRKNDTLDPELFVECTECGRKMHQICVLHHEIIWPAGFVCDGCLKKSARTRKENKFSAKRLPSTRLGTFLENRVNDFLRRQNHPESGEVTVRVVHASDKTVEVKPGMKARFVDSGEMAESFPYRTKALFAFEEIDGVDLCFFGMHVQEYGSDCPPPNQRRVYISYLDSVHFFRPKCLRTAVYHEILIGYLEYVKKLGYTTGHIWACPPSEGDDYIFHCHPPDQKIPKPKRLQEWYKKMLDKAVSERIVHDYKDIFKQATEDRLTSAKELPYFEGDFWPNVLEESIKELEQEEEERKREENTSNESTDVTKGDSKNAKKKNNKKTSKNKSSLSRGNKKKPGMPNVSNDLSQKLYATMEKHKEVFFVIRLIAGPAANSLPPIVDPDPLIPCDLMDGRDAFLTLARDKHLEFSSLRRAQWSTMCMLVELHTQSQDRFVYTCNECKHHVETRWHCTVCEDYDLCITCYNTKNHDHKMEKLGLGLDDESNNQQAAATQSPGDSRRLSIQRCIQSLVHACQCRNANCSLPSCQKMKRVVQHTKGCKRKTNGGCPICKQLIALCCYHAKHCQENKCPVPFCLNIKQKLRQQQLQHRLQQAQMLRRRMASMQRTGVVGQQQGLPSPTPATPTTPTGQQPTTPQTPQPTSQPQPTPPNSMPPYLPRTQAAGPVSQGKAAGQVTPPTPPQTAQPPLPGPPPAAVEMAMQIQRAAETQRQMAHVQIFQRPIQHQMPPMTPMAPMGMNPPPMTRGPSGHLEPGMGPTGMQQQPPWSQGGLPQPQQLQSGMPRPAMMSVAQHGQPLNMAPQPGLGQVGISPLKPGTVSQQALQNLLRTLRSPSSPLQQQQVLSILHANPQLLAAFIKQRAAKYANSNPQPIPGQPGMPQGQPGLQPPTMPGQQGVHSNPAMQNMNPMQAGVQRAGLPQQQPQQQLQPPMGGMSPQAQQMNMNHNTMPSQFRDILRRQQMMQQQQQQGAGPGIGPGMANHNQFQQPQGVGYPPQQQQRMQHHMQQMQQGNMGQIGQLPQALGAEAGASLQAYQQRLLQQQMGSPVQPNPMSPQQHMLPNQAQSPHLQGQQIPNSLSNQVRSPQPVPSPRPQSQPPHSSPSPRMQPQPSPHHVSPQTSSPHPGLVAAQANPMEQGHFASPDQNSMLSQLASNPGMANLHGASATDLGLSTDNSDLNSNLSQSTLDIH", "assay": "Immunohistochemistry of EP300 in Kelly cell xenografts", "type": "in vivo", "conditions": "40 mg/Kg once daily", "method": "Separately, eight animals were xenografted as described above, and treated with vehicle (n=4) or JQAD1 (n=4) at 40 mg/kg IP daily for 14 days. These animals were sacrificed at day 14, following which tumor was extracted, and divided for immunohistochemical analysis or analysis of RNA expression by RNA sequencing (RNA-seq). Immunohistochemistry was performed on the Leica® Bond™ III automated staining platform. Antibody EP300 from Cell Signaling Technology®, catalog number 86377, clone D8Z4E, was run at 1:50 dilution using the Leica® Biosystems Refine Detection Kit with citrate antigen retrieval. Antibody KAT3A/CBP (catalog number ab2832, polyclonal, Abcam) was run at 1:200 using the Leica® Biosystems Refine Detection Kit with ethylenediaminetetraacetic acid (EDTA) antigen retrieval."}, "[3]": {"test_system": "super-enhancer regulated and CRC genes", "assay": "ERCC spike-in RNA-seq of xenograft tumor cells", "type": "in vivo, human", "description": "For in vivo analyses, tumors were removed from animals treated with either vehicle […] to filtering for single cells through a […] filter. Single cell suspensions were then solubilized in TRIzol™ (Ambion) as described above, with processing, including ERCC RNA spike in controls, treatment with RNAse-free DNAse I, and spin purification. Following preparation, there was sufficient material to proceed with RNAseq analysis for four vehicle control and three JQAD1 treated tumor specimen. Purified RNA samples were subjected to library construction with a low input RNA protocol followed by poly-adenylation preparation and sequencing using the Illumina NextSeq® 500 (paired end, 75 bp reads). Raw reads for RNA-seq of in vivo models were aligned first using hisat2 v2.1 in paired-end mode against the mm9 revision of the mouse genome to filter out contaminating mouse reads. Remaining reads were aligned to a reference genome containing the hg19 revision of the human reference and the sequences of ERCC spike-in probes. Expression was quantified using sorted BAMs, a gene reference built using ERCC sizes and RefSeq genes downloaded Jul. 15, 2017, and htseq-count with parameters -I gene_id -stranded=reverse -f bam -m intersection-strict. Read counts were converted to transcripts per million (TPM) and used for cell number-normalization. […]"}, "EP300 [4]": {"target": "T2, EP300 (Mus musculus, UniProt B2RWS6)", "T2 construct": "from tissue; host or cells: liver of Balb/c Crbn^ILE391VAL knock-in mice", "T2 sequence (B2RWS6 whole entry)": "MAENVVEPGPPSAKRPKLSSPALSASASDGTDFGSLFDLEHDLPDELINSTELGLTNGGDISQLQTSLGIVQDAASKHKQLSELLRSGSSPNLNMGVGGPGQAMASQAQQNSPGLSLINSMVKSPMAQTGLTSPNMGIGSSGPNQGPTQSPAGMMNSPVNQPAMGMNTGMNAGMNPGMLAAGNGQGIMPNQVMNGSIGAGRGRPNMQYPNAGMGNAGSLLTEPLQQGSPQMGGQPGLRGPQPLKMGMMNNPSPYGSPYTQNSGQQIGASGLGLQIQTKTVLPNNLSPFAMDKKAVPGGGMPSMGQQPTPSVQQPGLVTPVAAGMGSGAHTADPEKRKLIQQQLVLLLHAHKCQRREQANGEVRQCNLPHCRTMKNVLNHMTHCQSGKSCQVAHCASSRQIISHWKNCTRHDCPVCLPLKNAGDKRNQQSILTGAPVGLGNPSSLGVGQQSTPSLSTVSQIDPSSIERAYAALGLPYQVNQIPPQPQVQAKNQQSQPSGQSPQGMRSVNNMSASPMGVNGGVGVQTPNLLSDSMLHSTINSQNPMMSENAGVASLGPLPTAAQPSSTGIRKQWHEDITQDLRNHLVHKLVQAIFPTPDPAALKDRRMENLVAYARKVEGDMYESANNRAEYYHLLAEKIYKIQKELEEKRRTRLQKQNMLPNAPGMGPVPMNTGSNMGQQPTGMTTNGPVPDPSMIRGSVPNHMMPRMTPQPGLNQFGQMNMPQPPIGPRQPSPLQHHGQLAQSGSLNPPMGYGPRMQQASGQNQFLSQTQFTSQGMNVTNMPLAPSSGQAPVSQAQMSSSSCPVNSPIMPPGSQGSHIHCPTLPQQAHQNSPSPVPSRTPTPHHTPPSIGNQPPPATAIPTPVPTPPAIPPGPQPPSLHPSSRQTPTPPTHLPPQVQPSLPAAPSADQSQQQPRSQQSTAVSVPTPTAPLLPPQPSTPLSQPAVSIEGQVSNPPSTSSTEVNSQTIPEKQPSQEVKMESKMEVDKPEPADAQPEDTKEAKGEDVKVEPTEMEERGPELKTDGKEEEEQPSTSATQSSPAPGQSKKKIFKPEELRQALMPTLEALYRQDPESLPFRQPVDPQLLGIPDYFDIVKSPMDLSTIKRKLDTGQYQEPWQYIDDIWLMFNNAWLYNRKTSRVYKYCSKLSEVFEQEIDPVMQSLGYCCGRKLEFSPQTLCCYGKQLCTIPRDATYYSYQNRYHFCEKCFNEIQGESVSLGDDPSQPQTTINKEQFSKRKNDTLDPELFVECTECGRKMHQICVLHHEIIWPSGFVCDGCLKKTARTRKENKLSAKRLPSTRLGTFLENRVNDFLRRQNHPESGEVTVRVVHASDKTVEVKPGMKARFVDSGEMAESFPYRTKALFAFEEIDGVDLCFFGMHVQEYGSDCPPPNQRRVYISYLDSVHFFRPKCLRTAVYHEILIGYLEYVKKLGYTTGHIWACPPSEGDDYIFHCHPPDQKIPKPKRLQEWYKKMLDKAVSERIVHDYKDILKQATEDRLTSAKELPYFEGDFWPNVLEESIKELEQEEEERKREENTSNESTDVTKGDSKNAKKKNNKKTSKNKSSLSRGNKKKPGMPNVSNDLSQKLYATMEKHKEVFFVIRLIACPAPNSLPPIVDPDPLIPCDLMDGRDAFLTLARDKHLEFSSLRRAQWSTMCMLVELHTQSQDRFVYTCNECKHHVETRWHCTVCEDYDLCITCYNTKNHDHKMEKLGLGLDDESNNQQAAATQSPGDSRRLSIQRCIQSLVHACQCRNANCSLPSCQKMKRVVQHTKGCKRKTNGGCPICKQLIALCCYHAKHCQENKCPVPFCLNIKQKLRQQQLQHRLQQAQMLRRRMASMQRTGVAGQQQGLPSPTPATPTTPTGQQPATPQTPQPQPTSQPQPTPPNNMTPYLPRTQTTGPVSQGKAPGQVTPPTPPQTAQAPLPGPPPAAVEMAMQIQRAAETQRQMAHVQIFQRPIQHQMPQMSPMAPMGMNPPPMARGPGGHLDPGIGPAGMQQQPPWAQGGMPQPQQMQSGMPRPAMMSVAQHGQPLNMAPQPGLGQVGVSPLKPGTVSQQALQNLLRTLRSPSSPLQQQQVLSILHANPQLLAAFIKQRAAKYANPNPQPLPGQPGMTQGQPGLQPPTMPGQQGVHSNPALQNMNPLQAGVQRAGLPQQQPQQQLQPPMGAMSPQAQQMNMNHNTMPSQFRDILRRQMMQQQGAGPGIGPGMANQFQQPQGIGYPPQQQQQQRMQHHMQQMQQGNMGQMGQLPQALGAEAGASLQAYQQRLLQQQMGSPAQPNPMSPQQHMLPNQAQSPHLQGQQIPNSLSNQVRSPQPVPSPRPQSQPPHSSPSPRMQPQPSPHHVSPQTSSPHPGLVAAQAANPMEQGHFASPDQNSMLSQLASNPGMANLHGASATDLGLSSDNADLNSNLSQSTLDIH", "assay": "Immunohistochemistry of EP300 in liver of Crbn ILE391VAL knockin mice", "type": "in vivo", "conditions": "40 mg/Kg IP daily, 14 days", "method": "as §1, with “For MTD testing in humanized CRBN knockin (Balb/c CRBN^ILE391VAL) (Jackson Laboratories), 6 mice per treatment group were treated with either vehicle control or (R,S)-JQAD1 at 40 mg/kg/day by IP injection.” left out, “At day 14, three mice per treatment group were sacrificed and tissues fixed for immunohistochemistry.” left out, “measurements. […]” for “measurements.”"}}, "note": "Where two headings read alike, the source gives them in different places.", "data": [{"molecule": "C[C@H](N(Cc1ccc(F)cc1)C(=O)CN1C(=O)O[C@@]2(CCc3cc(NC(=O)CCCCCCCCCCCNc4ccc5c(c4)C(=O)N(C4CCC(=O)NC4=O)C5=O)ccc32)C1=O)C(F)(F)F", "note": "(stereo partly drawn) [JQAD1, 12-((2-(2,6-dioxopiperidin-3-yl)-1,3-dioxoisoindolin-5-yl)amino)-N-((R)-3′-(2-((4-fluorobenzyl)((S)-1,1,1-trifluoropropan-2-yl)amino)-2-oxoethyl)-2′,4′-dioxo-2,3-dihydrospiro[indene-1,5′-oxazolidin]-5-yl)dodecanamide]", "values": [{"measurement": "half-life", "setting": "[1]", "value": "13.3 (+/−3.37) h"}, {"measurement": "Cmax", "setting": "[1]; female, mouse", "value": 7, "unit": "µM"}, {"measurement": "half-life", "setting": "[1]; female, mouse, read-out: half-life (converted)", "value": 13.3, "unit": "h"}, {"measurement": "EP300 immunostaining of tumors", "setting": "EP300 [2]", "value": "loss of EP300 immunostaining compared with vehicle control tumors"}, {"measurement": "expression of CRC genes and MYCN in tumors", "setting": "[3]; 40 mg/Kg daily for 14 days", "value": "among the most downregulated genes"}, {"measurement": "RNA expression of super-enhancer versus typical-enhancer regulated genes in tumor cells", "setting": "[3]; 40 mg/Kg once daily, p<0.0001", "value": "preferential downregulation of genes regulated by super-enhancers compared with those regulated by typical enhancers"}, {"measurement": "EP300 protein expression in liver", "setting": "EP300 [4]", "value": "reduced EP300 protein expression levels in the liver cell nuclei"}]}]}
